Measured values from patent US6310037A, “Method of controlling protozoan infections using syringomycin-family lipodepsipeptides” (Utah State University, priority 1999, dated 2001).
Values after ≈ are worked out from the molar mass of the structure shown. Where a SMILES comes first, the peptide text is derived from it. Bridges are numbered along the chain shown (N, C = ends). [ ]: non-standard residue; d: D form. The star is where a group is joined. Asp(3S-OH) = N[C@H](C(=O)O)[C@H](O)C(=O)O; Thr(4-Cl) = N[C@H](C(=O)O)[C@H](O)CCl; X1 = CCCCCCCCC[C@@H](O)CC(=O)*; dDab = NCC[C@@H](N)C(=O)O; Dab = NCC[C@H](N)C(=O)O; Dhb = C/C=C(\N)C(=O)O

Tests used:
[1] = test system: BFTE cells; experiment: Toxic effect of Syr-E on BFTE host cells at pH 6.3 (neutral red assay, visual observation); assay type: cell-based, bovine
Protocol: Primary BFTE cell cultures were prepared from bovine fallopian tubes (FT). Fat was trimmed from the serosal surfaces, mucus was gently squeezed from the lumens, and FT were decontaminated by being submerged in 70% ethanol for 30 seconds. The FT were then transferred to sterile culture petri dishes containing HBSS and washed twice. The BFTE cells were harvested either by flushing the FT with HBSS, using a 10 ml syringe equipped with a mouse feeding needle, or by opening the FT lengthwise with scissors and scraping the mucosal surfaces. The BFTE cells were subsequently washed in HBSS by centrifugation at 200×g (force of gravity) for 10 minutes, planted in 75-cm^2 flasks containing RPMI 1640 and cultured in a 5% CO2 incubator at 37° C. for 72 to 120 hours. When the cell lines reached confluency, they were trypsinized, split, and planted onto cover slips positioned on the bottoms of individual wells in 24-well tissue culture plates. When cells reached 80% confluency, they were inoculated with either 10^5 oocysts or 4×10^5 sporozoites per well. Plates were then maintained at 37° C. in a candle jar environment (17% O2, 3% CO2, 80% N2). Growth medium was changed in each well every 72 hours. In wells inoculated with oocysts, the medium was first changed at 24 hours to remove any unexcysted oocysts.
Neutral red assay was used to measure viewable cell damage, such as obvious plaque forming and cell peeling. Briefly, 0.1 ml of neutral red was directly added to supernatant in each well of 96-well plates at the termination of the culture. Following 1-hr incubation at 37°C., the supernatant mixture from each well was discarded and cells at the bottom of the wells were rinsed twice with PBS. A volume of 0.2 ml/well extract buffer was added and the content in each well was well mixed prior to 30 min. incubation in the dark at 25°C. cytotoxicity was quantitatively read using a Microplate Autoreader (Bio-Tek Instruments, Inc., Winooski, Vt.) with a wavelength set at 540 nm.
Samples were collected on day 2 post inoculation. Each group consisted of both uninfected (empty bar) and C. parvum infected (solid bar) subgroups. In group 1, the medium pH was adjusted to 7.2, no Syr-E was used, and the cytotoxicity of the uninfected subgroup set to zero percent. Medium pH in groups 2-8 was adjusted to 6.3 and groups 3-8 received Syr-E treatments at 1, 2, 4, 8, 16, and 32 ,g/ml, respectively. Data are presented as the means +/- standard error of the mean. The cytotoxic effect increased from approximately 40% to 60% as Syr-E concentrations were elevated from 1 to 16 μg/ml, presenting a dose-dependent response. […] BFTE cells were 98% destroyed when Syr-E concentration reached 32 μg/ml at pH 6.3.

[2] = test system: P. falciparum D6; assay type: cell-based; settings: D6 isolate, pH 7.0, 66 hour incubation
From the text: (§1) P. falciparum used in this study were two well characterized clones, W2 and D6, as described in Oduola, A. M. et al., Plasmodium falciparum: cloning by single-erythrocyte micromanipulation and heterogeneity in vitro; Exp. Parasitol. 66, 86-95 (1988), the contents of which are incorporated herein by this reference. W2 is a clone of the Indochina I isolate and is resistant to chloroquine and pyrimethamine, but susceptible to mefloquine. D6 is a clone from the Sierra I/UNC isolate and is susceptible to chloroquine and pyrimethamine, but has reduced susceptibilities to mefloquine and halofantrine.
(§2) The susceptibility of P. falciparum to Syr-E was studied using a modified antimalarial drug susceptibility screen following the procedures published by Desjardins et al., Quantitative assessment of antimalarial activity in vitro by semiautomated microdilution technique (1979), with modifications developed by Milhous et al., In vitro strategies for circumventing antimalarial drug resistance, Prog. […]
(§3) Syr-E was dissolved directly in dimethylsulfoxide (DMSO) and diluted 400 fold with complete culture media and started at a highest concentration of 50,000 ng/ml. […] The filter mats were then counted in a scintillation counter and the data downloaded with custom, automated analysis software (developed at the Walter Reed Army Institute of Research). […]

[3] = test system: P. falciparum W2; assay type: cell-based; settings: W2 isolate, pH 7.0, 66 hour incubation
From the text: as §1, §2, §3

Q: What does the source list for `C/C=C1\NC(=O)[C@H](Cc2ccccc2)NC(=O)[C@H](CCCNC(=N)N)NC(=O)[C@H](CCN)NC(=O)[C@@H](CCN)NC(=O)[C@@H](CO)NC(=O)[C@@H](NC(=O)C[C@H](O)CCCCCCCCC)COC(=O)[C@H]([C@H](O)CCl)NC(=O)[C@H]([C@H](O)C(=O)O)NC1=O` [Syr-E, Syringomycin-E] (X1-S[dS][dDab][Dab]RF[Dhb][Asp(3S-OH)][Thr(4-Cl)]; ester 1-C)?
A: cytotoxic effect (neutral red assay) ([1]; Syr-E 1 μg/ml, BFTE cells, pH 6.3, day 2 post inoculation): approximately 40%; cytotoxic effect (neutral red assay) ([1]; Syr-E 16 μg/ml, BFTE cells, pH 6.3, day 2 post inoculation): ~60%; BFTE cells destroyed (neutral red assay) ([1]; Syr-E 32 μg/ml, pH 6.3, day 2 post inoculation): 98%; visual cell damage ([1]; Syr-E 0.5-9.0 μg/ml, BFTE cells, pH 6.3): Visual cell plaques were observed; IC50 [2]: 3.03 µg/mL (≈ 2.47 µM); IC50 [3]: 3.23 µg/mL (≈ 2.64 µM)
